Results on 2 molecules are retold here after EP4778929A1, “NOVEL TYPE I TOPOISOMERASE INHIBITOR, AND PREPARATION METHOD THEREFOR AND USE THEREOF” (priority 2023, dated 2025).

Test [1] has as its system Human colon cancer HCT116 cells. The experiment in a line: Subcutaneous xenograft model of human colon cancer HCT-116 cells. It is filed as in vivo, BALB/c nude mice. The settings on record: day 21 post-treatment, 5 mg/kg, IV, BIW×3W. On the procedure:
Test Example 4. Pharmacodynamic Evaluation of Compound 2, Compound 250, and Compound 253 in a Subcutaneous Xenograft Model of Human Colon Cancer HCT-116 Cells in BALB/c Female Nude Mice
Human colon cancer HCT116 cells were cultured in vitro as monolayers in McCoys 5a medium supplemented with 10% fetal bovine serum and 1% penicillin/streptomycin/amphotericin B at 37 °C in a 5% CO2 incubator. Cells were routinely passaged twice a week using trypsin-EDTA digestion. When cells reached 80%-90% confluence and the required cell number was achieved, cells were harvested. HCT116 cells (0.1 mL, 5×10^6 cells) were subcutaneously inoculated into the right dorsal region near the upper forelimb of each mouse (BALB/c nude mice, female, 6-8 weeks old). Treatment was initiated when the average tumor volume reached approximately 158 mm^3. Tumor volume was measured twice weekly. At the end of the experiment, the tumor growth inhibition rate (TGI) was calculated as: TGI (%) = [1 - (average tumor volume at the end of treatment in a particular group - average tumor volume at the start of treatment in that group) / (average tumor volume at the end of treatment in the vehicle control group - average tumor volume at the start of treatment in the vehicle control group)] × 100%.
(§1) Experimental Groups and Dosing Regimen:
• 1, Vehicle control group • 2, Compound 2, 5 mg/kg, IV, BIW×3W • 3, Compound 250, 5 mg/kg, IV, BIW×3W • 4, Compound 253, 5 mg/kg, IV, BIW×3W
In general terms: A xenograft is tissue or cells of one species grown in another, often human tumour cells in immunodeficient mice.

A further test deals with T1, topoisomerase I (Topo I) (Homo sapiens, UniProt P11387).
T1 sequence (P11387 1-765): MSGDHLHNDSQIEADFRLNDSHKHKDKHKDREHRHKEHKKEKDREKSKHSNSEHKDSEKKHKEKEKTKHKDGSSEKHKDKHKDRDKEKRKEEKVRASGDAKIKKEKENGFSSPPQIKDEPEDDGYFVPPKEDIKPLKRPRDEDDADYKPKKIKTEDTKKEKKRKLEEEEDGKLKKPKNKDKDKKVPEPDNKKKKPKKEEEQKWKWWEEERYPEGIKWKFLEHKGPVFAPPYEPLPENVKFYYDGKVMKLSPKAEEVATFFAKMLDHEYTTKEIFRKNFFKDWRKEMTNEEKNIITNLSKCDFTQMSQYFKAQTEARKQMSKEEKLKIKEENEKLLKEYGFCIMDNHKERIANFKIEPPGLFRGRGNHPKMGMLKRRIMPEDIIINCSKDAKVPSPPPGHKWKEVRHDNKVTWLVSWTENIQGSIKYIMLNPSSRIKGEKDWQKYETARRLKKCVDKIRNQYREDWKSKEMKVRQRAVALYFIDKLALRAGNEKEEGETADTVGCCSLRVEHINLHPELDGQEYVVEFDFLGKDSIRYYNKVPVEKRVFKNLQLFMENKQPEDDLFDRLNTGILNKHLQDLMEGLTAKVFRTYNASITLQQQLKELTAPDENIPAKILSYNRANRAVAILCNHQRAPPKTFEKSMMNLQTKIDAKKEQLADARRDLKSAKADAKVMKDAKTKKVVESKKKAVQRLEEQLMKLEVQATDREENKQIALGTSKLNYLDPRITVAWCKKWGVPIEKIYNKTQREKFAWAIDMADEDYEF
The experiment in a line: Topo I enzyme-inhibitory activity by agarose-gel electrophoresis (plasmid relaxation). It is filed as biochemical. The gist of the method: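 Supercoiled pNO1 plasmid (0.5 µg) was relaxed by Topo I (0.75 U) in 20 mM Tris-HCl pH 7.5, 200 mM NaCl, 0.25 mM EDTA, 5 % glycerol, 5 % DMSO final, for 30 min at 37 °C. Supercoiled band intensity on agarose gel was normalized to no-enzyme and vehicle controls. IC50 from a four-parameter logistic fit.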

For test [2], the system named is Human colon cancer CR00090 cells. Briefly: CR00090 human colon cancer model (subcutaneous). It is filed as in vivo, NPSG mice. The settings on record: day 28 post-treatment, 5 mg/kg, IV, BIW×4W. On the procedure:
Test Example 5: Pharmacodynamic Evaluation of Compound 117, Compound 250, and Compound 253 in the CR00090 Human Colon Cancer Model
Human colon cancer CR00090 cells were thawed, counted, and mixed with Matrigel at a 1:1 ratio. Then, 0.1 mL (5×10^5 cells) of CR00090 cells were subcutaneously inoculated into the right dorsal region near the upper forelimb of each mouse (NPSG mice, female, 6-8 weeks old). Treatment was initiated when the average tumor volume reached approximately 84 mm^3. Tumor volume was measured twice weekly. At the end of the experiment, the tumor growth inhibition rate (TGI) was calculated as: TGI (%) = [1 - (average tumor volume at the end of treatment in a particular group - average tumor volume at the start of treatment in that group) / (average tumor volume at the end of treatment in the vehicle control group - average tumor volume at the start of treatment in the vehicle control group)] × 100%.
as §1
• 1, Vehicle control group • 2, Compound 117, 5 mg/kg, IV, BIW×4W • 3, Compound 250, 5 mg/kg, IV, BIW×4W • 4, Compound 253, 5 mg/kg, IV, BIW×4W

SMILES strings stand for the structures. Read-outs that look alike come from different tables or passages of the source. A value given as a limit tells only on which side of the number the result lay.

A word on the IC50: it is the point on the concentration scale where inhibition reaches its midpoint. Regarding `CC[C@@]1(O)C(=O)OCc2c1cc1n(c2=O)Cc2c-1c(=O)c1cc(F)cc(C)c1n2C` [Example 2, (S)-4-ethyl-8-fluoro-4-hydroxy-10,11-dimethyl-1,12-dihydro-14H-pyrano[3,4:6,7]indolizino[2,1-b]quinoline-3,6,14(4H,11H)-trione], in test [1], the TGI is 81.9%. The molecule further displayed a tumor volume in test [1] (vehicle control 1146 mm^3) of 335 mm^3. This molecule showed an IC50 at topoisomerase I (Topo I) of under 200 nM.
`CC[C@@]1(O)C(=O)OCc2c1cc1n(c2=O)Cc2c-1c(=O)c1cc(F)ccc1n2CCN(C)C1CCCC1` [Example 117] showed a TGI in test [2] of 82.4%. This molecule also showed a tumor volume in test [2] (vehicle control 1093 mm^3) of 262 mm^3. Further, the concentration for half-maximal inhibition (IC50) on topoisomerase I (Topo I) (read-out: inhibition of topoisomerase I (Topo I) enzymatic activity, IC50, 0.75 U Topo I, pNO1 plasmid, 37 °C, 30 min, compounds listed by group (Group A / Group B)) is 200 to 500 nM.
